Consider two compounds from patent US20230372292A1 (priority 2020, published 2023).

SMILES strings stand for the structures.

As usually defined, the Ki is a measure of affinity in units of concentration, obtained from inhibition or displacement.

In data set [1] the test system is inflammasome-mediated release of IL1beta. Put plainly: Nigericin-induced IL-1β release in PMA-differentiated, LPS-stimulated THP-1 cells (ELISA). The settings on record: PMA 50 nM 24 h, LPS 1 μg/mL 6 h. The format is cell-based, human. The protocol:
THP-1 cells come from a child with leukemia. It is a pre-monocytic line, characterized by a suspension of (non-adherent) cells with a well rounded shape. The cells used come from ATCC. The cells are cultured at a density of 0.4.106 /mL in T75 flasks kept upright in RPMI 1640 Medium, Glutamax, Supplement HEPES (ThermoFischer Scientific, #72400027) supplemented with 10% FCS (previously decomplemented and flitre) and 1% PS antibiotics. The cultures are maintained at 37° C. under a humid atmosphere with 5% CO2.
The differentiation of THP-1 is induced by adding phorbol 12-myritate 13-acetate (PMA, 5 mg/mL stock in DMSO, InvivoGen, # tlrl-pma) to the medium. More precisely, the latter mimics the structure of diacylglycerol (DAG) which is an activator of protein Kinase C (PKC). Thus, it allows the stimulation of the expression of transcription factors including NF-kB, which are involved in macrophage differentiation (Park E. K. et al., 2007; Daigneault M. et al., 2010). After treatment with PMA the cells acquire a macrophages-like phenotype, that is, they become adherent and no longer divide. In practice, the cells are seeded on 24-well plates at a density of 300.103 cells/well, the PMA is then added for 24 hours at a concentration of 50 nM. The next day, the cells are washed gently with PBS and fresh complete medium is added, the cells are then left for 3 days. […]

For the next data set, the system named is interleukin-1β release. The settings on record: after LPS treatment; cited from earlier work.
The conditions of data set [2]: cited from earlier work.
The conditions of data set [3]: osteoarthritis, epilepsy, myocardial infarction (in combination with a platelet inhibitor); cited from earlier work.
In a further data set the target is T1, Caspase-7 (Homo sapiens, UniProt P55210).
T1 sequence (P55210 24-198 limits assumed): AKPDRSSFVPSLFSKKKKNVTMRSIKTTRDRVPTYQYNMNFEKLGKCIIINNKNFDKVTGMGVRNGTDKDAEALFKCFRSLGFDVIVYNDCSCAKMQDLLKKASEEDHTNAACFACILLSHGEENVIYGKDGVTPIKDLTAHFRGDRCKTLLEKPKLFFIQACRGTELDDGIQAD
T1 sequence (P55210 207-303 limits assumed): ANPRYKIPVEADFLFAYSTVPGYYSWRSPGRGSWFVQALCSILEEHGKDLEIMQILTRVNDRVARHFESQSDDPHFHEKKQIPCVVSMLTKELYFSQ
The settings on record: active form of Belnacasan; cited from earlier work.

In another data set the target is T2, Caspase-9 (Homo sapiens, UniProt P55211).
T2 sequence (P55211 1-315 limits assumed): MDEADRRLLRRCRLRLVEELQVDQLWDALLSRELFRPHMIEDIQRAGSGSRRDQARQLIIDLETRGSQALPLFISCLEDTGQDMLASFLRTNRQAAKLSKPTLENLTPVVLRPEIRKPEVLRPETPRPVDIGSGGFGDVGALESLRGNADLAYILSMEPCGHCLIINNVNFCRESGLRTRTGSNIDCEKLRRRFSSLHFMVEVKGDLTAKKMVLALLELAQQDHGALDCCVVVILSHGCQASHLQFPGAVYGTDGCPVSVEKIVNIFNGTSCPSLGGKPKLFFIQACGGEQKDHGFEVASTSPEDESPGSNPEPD
T2 sequence (P55211 331-416 limits assumed): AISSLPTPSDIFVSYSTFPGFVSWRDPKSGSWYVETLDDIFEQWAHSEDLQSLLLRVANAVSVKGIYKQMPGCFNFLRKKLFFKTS
Conditions: active form of Belnacasan; cited from earlier work.

For the next data set, the target named is T3, Caspase-3 (Homo sapiens, UniProt P42574).
T3 sequence (P42574 29-175 limits assumed): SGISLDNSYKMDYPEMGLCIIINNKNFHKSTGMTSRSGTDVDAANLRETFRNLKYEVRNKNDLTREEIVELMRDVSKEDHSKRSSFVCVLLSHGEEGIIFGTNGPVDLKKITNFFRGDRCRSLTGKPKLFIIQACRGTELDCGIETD
T3 sequence (P42574 176-277 limits assumed): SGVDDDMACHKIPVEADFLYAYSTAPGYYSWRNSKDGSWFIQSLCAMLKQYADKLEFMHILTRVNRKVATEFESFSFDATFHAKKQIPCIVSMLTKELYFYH
Conditions: active form of Belnacasan; cited from earlier work.

In another data set the target is T4, Caspase-4 (Homo sapiens, UniProt P49662).
T4 sequence (P49662 81-270 limits assumed): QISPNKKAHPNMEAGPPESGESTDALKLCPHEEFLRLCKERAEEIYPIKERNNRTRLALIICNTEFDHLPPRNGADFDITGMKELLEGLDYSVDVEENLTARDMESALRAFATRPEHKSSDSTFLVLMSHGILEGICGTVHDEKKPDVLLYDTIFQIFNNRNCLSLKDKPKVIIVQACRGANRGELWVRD
T4 sequence (P49662 290-377 limits assumed): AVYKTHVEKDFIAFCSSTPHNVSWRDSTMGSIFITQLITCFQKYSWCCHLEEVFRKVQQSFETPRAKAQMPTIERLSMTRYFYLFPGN
The settings on record: active form of Belnacasan; cited from earlier work.

`CCO[C@@H]1OC(=O)C[C@@H]1NC(=O)[C@@H]1CCCN1C(=O)[C@@H](NC(=O)c1ccc(N)c(Cl)c1)C(C)(C)C` [Belnacasan, (S)-1-((S)-2-(4-Amino-3-chlorobenzamido)-3,3-dimethylbutanoyl)-N-((2R,3S)-2-ethoxy-5-oxotetrahydrofuran-3-yl)pyrrolidine-2-carboxamide]: the “reduction of the release of the cytokine IL-1β into the medium” value in data set [1] (25 μM, after 120 minutes of Nigericin treatment) turned out to be 90%. Moreover, the “release of IL-1beta induced by nigericin” value in data set [1] (Nigericin 5 μM for 60 and 120 minutes, n=3) is recorded as “prevents the release”. The “efficacy in cellular models of interleukin-1β release” value in the data set with interleukin-1β release is reported as “effective”. For the same compound, in data set [2] (oral), the tolerability in humans result is “well tolerated”. Also, in data set [2] (phase 2b, 60 patients with epilepsy (48 VX-765), no statistical superiority vs placebo), the “decrease in the frequency of epileptic episodes (secondary endpoint)” value is reported as 15.6%. The “primary endpoint of safety and tolerance” value in data set [2] (phase 2b, 60 patients with epilepsy) is listed as “reached”. In data set [3], the “efficacy in animal models” value was “significant efficacy”.

For `CC(C)(C)[C@H](NC(=O)c1ccc(N)c(Cl)c1)C(=O)N1CCC[C@H]1C(=O)N[C@H](C=O)CC(=O)O` [VRT-043198], the inhibition constant Ki on Caspase-7 was 21.5 µM; on Caspase-9 it was 1 µM; on Caspase-3, 16 µM; at Caspase-4, less than 0.0006 µM.
